Reference: patent US10259810B2, “N-sulfonylated pyrazolo[3,4-b]pyridin-6-carboxamides and method of use” (AbbVie S.à.r.l., priority 2015, dated 2019)
Where two headings read alike, the source gives them in different places.

Experiments:
Format in all cases: cell-based
ΔF508-CFTR [1] = molecular target: T1, ΔF508-CFTR (Homo sapiens, UniProt P13569, DEL508-508); test: CFTR cell surface levels using HRP-tagged ΔF508-CFTR expressing CFBE cells, intrinsic corrector capacity; set-up: % Activation: concentration or dose not given beside the values
T1 construct: host or cells: CFBE41o-, doxycycline-inducible
T1 sequence (P13569 with tags, fused parts or gaps DEL508-508): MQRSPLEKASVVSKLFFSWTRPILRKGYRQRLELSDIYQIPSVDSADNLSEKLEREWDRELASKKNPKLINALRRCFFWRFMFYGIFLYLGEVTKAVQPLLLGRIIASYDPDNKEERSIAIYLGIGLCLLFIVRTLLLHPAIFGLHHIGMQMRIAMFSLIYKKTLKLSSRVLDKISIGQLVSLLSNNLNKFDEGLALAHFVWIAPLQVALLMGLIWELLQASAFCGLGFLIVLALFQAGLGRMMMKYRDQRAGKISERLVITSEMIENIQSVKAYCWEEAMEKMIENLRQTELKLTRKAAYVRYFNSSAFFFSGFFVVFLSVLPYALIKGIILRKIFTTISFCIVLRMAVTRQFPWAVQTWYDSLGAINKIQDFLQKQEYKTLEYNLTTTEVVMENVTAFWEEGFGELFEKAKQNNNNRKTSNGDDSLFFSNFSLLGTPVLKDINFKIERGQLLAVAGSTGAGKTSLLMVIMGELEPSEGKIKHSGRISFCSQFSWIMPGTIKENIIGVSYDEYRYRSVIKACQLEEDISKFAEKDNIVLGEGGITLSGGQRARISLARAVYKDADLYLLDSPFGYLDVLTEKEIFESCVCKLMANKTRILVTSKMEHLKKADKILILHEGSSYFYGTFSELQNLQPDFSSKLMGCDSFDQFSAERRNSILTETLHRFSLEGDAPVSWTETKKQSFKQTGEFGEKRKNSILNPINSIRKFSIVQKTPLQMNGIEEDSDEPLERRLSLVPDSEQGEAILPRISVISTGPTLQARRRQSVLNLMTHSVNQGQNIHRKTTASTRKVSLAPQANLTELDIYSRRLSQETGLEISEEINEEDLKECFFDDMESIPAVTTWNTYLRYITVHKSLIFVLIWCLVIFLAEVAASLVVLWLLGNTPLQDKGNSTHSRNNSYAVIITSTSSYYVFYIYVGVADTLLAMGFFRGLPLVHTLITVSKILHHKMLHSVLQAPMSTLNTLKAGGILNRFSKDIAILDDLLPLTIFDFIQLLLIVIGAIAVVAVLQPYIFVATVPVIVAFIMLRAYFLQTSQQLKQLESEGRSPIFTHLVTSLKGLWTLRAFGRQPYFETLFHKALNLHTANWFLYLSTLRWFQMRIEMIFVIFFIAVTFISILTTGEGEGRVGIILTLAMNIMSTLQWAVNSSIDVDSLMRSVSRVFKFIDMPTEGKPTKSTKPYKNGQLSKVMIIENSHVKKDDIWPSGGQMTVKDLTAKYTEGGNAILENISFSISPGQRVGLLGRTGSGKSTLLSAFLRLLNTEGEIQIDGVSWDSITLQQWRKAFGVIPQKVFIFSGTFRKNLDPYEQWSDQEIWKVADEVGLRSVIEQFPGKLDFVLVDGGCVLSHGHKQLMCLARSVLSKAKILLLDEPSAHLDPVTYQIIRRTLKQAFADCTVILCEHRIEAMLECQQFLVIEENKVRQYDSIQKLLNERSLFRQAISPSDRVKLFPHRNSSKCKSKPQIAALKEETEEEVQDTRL
Summary of the method: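 Read-out: chemiluminescent HRP activity of ECL4-HRP-tagged ΔF508-CFTR at the cell surface, 15 min substrate in dark. Normalized as 100×(sample−DMSO)/(positive control−DMSO).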

ΔF508-CFTR [2] = molecular target: T1, ΔF508-CFTR; test: CFTR cell surface levels using HRP-tagged ΔF508-CFTR expressing CFBE cells, in the presence of a co-corrector
Summary of the method: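 Chemiluminescent read-out of surface HRP (15 min, dark) after PBS washes. Activity is normalized as 100×(sample−DMSO)/(3 μM co-corrector alone−DMSO).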

CFTR ΔF508 = molecular target: T2, CFTR ΔF508 (Homo sapiens, UniProt P13569, DEL508-508); test: Chronic TECC assay, primary bronchial epithelial cells of CF patients homozygous for CFTR ΔF508 (corrector, co-corrector and potentiator); conditions: for % Activity at 1 μM (AUC**): test compound at 1 μM; for % Activity at 3 μM (AUC**): test compound at 3 μM
T2 construct: bronchial epithelial cells isolated from CF patients homozygous for the CFTR ΔF508 mutation; McGill University; Asterand; University of North Carolina hAEC-CF; host or cells: primary human bronchial epithelial cells from CF patients homozygous for ΔF508, differentiated at air-liquid interface
T2 sequence (P13569 with tags, fused parts or gaps DEL508-508): as above
Summary of the method: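 Primary bronchial epithelial cells from ΔF508-homozygous CF patients on collagen IV-coated Transwells were chronically treated with test compound plus corrector and potentiator, which were re-added before recording. Ieq was derived from PD and Rt in NaCl-Ringer, pH 7.4, at 37° C, with apical amiloride and bilateral forskolin, recorded every 2 min over 20 min. Ieq increase was normalized to controls, and EC50 was taken from per-well concentrations.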

[3] = HRP-tagged ΔF508-CFTR expressing CFBE41o- cells, compound alone (intrinsic corrector capacity), 20 hours at 33° C.
[4] = HRP-tagged ΔF508-CFTR expressing CFBE41o- cells, compound alone (intrinsic corrector capacity), 20 hours at 33° C., read-out: EC50
[5] = HRP-tagged ΔF508-CFTR CFBE cells, in the presence of 3 μM co-corrector
[6] = HRP-tagged ΔF508-CFTR CFBE cells, in the presence of 3 μM co-corrector, read-out: EC50
[7] = chronic TECC, AUC = full area under the curve upon forskolin stimulation, read-out: EC50 (nM) (AUC**)
[8] = chronic TECC, AUC = full area under the curve upon forskolin stimulation

SMILES	% Activation (ΔF508-CFTR [1]; [3])	EC50 (ΔF508-CFTR [1]; [4])	% Activation (ΔF508-CFTR [2]; [5])	EC50 (ΔF508-CFTR [2]; [6])	EC50 (CFTR ΔF508; [7])	% Activity at 1 μM (AUC**) (CFTR ΔF508; [8])	EC50 (ΔF508-CFTR [1])	EC50 (ΔF508-CFTR [2])	EC50 (CFTR ΔF508)	% Activity at 3 μM (AUC**) (CFTR ΔF508; [8])	EC50 (CFTR ΔF508; chronic TECC, Ieq = calculations based on the maximum current, read-out: EC50 (nM) (Ieq*))
CC(C)c1nn(-c2ccc(F)cc2)c2nc(C(=O)NS(C)(=O)=O)cc(N3CCC(N4CCCCC4)CC3)c12 [Compound 348, 4-([1,4'-bipiperidin]-1'-yl)-1-(4-fluorophenyl)-N-(methanesulfonyl)-3-(propan-2-yl)-1H-pyrazolo[3,4-b]pyridine-6-carboxamide]	293.6%	5970 nM	468.65%	723 nM	200 nM	343.24%					
CS(=O)(=O)NC(=O)c1cc(N2CCC(N3CCCCC3)CC2)c2c(C3CCC3)nn(-c3ccccc3)c2n1 [Compound 365, 4-([1,4′-bipiperidin]-1′-yl)-3-cyclobutyl-N-(methanesulfonyl)-1-phenyl-1H-pyrazolo[3,4-b]pyridine-6-carboxamide]	313%		469.95%				1670 nM	271 nM	200 nM		
COCC1CCN(c2cc(C(=O)NS(=O)(=O)C3CCOC3)nc3c2c(C2CCC2)nn3-c2ccccc2)CC1 (stereo not shown) [Compound 369, 3-cyclobutyl-4-[4-(methoxymethyl)piperidin-1-yl]-N-(oxolane-3-sulfonyl)-1-phenyl-1H-pyrazolo[3,4-b]pyridine-6-carboxamide]	292.7%	101 nM	444%	106 nM	8.3 nM	583.16%					
COCC1CCN(c2cc(C(=O)NS(C)(=O)=O)nc3c2c(C(C)C)nn3-c2cc(C)nc(C)c2)CC1 [Compound 370, 1-(2,6-dimethylpyridin-4-yl)-N-(methanesulfonyl)-4-[4-(methoxymethyl)piperidin-1-yl]-3-(propan-2-yl)-1H-pyrazolo[3,4-b]pyridine-6-carboxamide]	172.2%	1490 nM	343.2%	691 nM						226.54%	
COCC1CN(C2CCN(c3cc(C(=O)NS(=O)(=O)N(C)C)nc4c3c(C3CCC3)nn4-c3ccc(F)cc3)CC2)CCO1 (stereo not shown) [Compound 379, 3-cyclobutyl-N-(dimethylsulfamoyl)-1-(4-fluorophenyl)-4-{4-[2-(methoxymethyl)morpholin-4-yl]piperidin-1-yl}-1H-pyrazolo[3,4-b]pyridine-6-carboxamide]	268.45%	141 nM	440.55%	61.1 nM	43 nM						
CC(C)N1CCN(C2CCN(c3cc(C(=O)NS(=O)(=O)N(C)C)nc4c3c(C3CCC3)nn4-c3ccc(F)cc3)CC2)CC1 [Compound 382, 3-cyclobutyl-N-(dimethylsulfamoyl)-1-(4-fluorophenyl)-4-{4-[4-(propan-2-yl)piperazin-1-yl]piperidin-1-yl}-1H-pyrazolo[3,4-b]pyridine-6-carboxamide]	305.9%	261 nM	500.01%	158 nM						347%	205 nM
COCC1CCN(c2cc(C(=O)NS(C)(=O)=O)nc3c2c(C2CCC2)nn3-c2ccnc(OC)c2)CC1 [Compound 385, 3-cyclobutyl-N-(methanesulfonyl)-4-[4-(methoxymethyl)piperidin-1-yl]-1-(2-methoxypyridin-4-yl)-1H-pyrazolo[3,4-b]pyridine-6-carboxamide]	227.5%	121 nM	393.53%	64 nM	12.3 nM						
COCC1CCN(c2cc(C(=O)NS(=O)(=O)N3CCOCC3)nc3c2c(C2CCC2)nn3-c2ccccc2)CC1 [Compound 396, 3-cyclobutyl-4-[4-(methoxymethyl)piperidin-1-yl]-N-(morpholine-4-sulfonyl)-1-phenyl-1H-pyrazolo[3,4-b]pyridine-6-carboxamide]	222.9%	121 nM	385.8%	55 nM						259.4666%	
COCC1CCN(c2cc(C(=O)NS(=O)(=O)N3CCC(N4CCOCC4)CC3)nc3c2c(C2CCC2)nn3-c2ccccc2)CC1 [Compound 397, 3-cyclobutyl-4-[4-(methoxymethyl)piperidin-1-yl]-N-[4-(morpholin-4-yl)piperidine-1-sulfonyl]-1-phenyl-1H-pyrazolo[3,4-b]pyridine-6-carboxamide]	234.5%	155 nM	381.8%	49 nM						251.7766%	
COCC1CCN(c2cc(C(=O)NS(=O)(=O)N3CCC(F)CC3)nc3c2c(C2CCC2)nn3-c2ccccc2)CC1 [Compound 399, 3-cyclobutyl-N-(4-fluoropiperidine-1-sulfonyl)-4-[4-(methoxymethyl)piperidin-1-yl]-1-phenyl-1H-pyrazolo[3,4-b]pyridine-6-carboxamide]	237.5%	72.1 nM	388.77%	44.2 nM		244.7508%					
COCC1CCN(c2cc(C(=O)NS(=O)(=O)N3CCN(C)CC3)nc3c2c(C2CCC2)nn3-c2ccccc2)CC1 [Compound 400, 3-cyclobutyl-4-[4-(methoxymethyl)piperidin-1-yl]-N-(4-methylpiperazine-1-sulfonyl)-1-phenyl-1H-pyrazolo[3,4-b]pyridine-6-carboxamide]	180.65%	163 nM	365.43%	157 nM		230%					
COCC1CCN(c2cc(C(=O)NS(=O)(=O)N(C)C)nc3c2c(C2CCC2)nn3-c2ccccc2)CC1 [Compound 402, 3-cyclobutyl-N-(dimethylsulfamoyl)-4-[4-(methoxymethyl)piperidin-1-yl]-1-phenyl-1H-pyrazolo[3,4-b]pyridine-6-carboxamide]	303.5%	312 nM	471.42%	116 nM	12.1 nM	345.045%					
CC(C)Oc1nn(C2CCCCC2)c2nc(C(=O)NS(C)(=O)=O)cc(-c3ccc(CN4CCOCC4)cc3)c12 [Compound 404, 1-cyclohexyl-N-(methanesulfonyl)-4-{4-[(morpholin-4-yl)methyl]phenyl}-3-[(propan-2-yl)oxy]-1H-pyrazolo[3,4-b]pyridine-6-carboxamide]	181.2%	186 nM	370%	126 nM		433.3333%					
COCCS(=O)(=O)NC(=O)c1cc(-c2ccc(CN3CCOCC3)cc2)c2c(OC(C)C)nn(C3CCCCC3)c2n1 [Compound 405, 1-cyclohexyl-N-(2-methoxyethanesulfonyl)-4-{4-[(morpholin-4-yl)methyl]phenyl}-3-[(propan-2-yl)oxy]-1H-pyrazolo[3,4-b]pyridine-6-carboxamide]	160.8%	191 nM	326.9%	102 nM		323.3333%					
CC(C)Oc1nn(C2CCCCC2)c2nc(C(=O)NS(=O)(=O)N(C)C)cc(-c3ccc(CN4CCOCC4)cc3)c12 [Compound 406, 1-cyclohexyl-N-(dimethylsulfamoyl)-4-{4-[(morpholin-4-yl)methyl]phenyl}-3-[(propan-2-yl)oxy]-1H-pyrazolo[3,4-b]pyridine-6-carboxamide]	125.95%	241 nM	311.35%	182 nM		235%					
COCCS(=O)(=O)NC(=O)c1cc(N2CCC(N3CCOCC3)CC2)c2c(C3CCC3)nn(-c3ccc(F)cc3)c2n1 [Compound 407, 3-cyclobutyl-1-(4-fluorophenyl)-N-(2-methoxyethanesulfonyl)-4-[4-(morpholin-4-yl)piperidin-1-yl]-1H-pyrazolo[3,4-b]pyridine-6-carboxamide]	331.45%	497 nM	494.15%	124 nM	48.9 nM	310%					
CN(C)S(=O)(=O)NC(=O)c1cc(N2CCC(CN3CCOCC3)CC2)c2c(C3CCC3)nn(-c3ccc(F)cc3)c2n1 [Compound 409, 3-cyclobutyl-N-(dimethylsulfamoyl)-1-(4-fluorophenyl)-4-{4-[(morpholin-4-yl)methyl]piperidin-1-yl}-1H-pyrazolo[3,4-b]pyridine-6-carboxamide]	245.4%	155 nM	481.1%	108 nM	150 nM	420%					
